Reference: patent publication US6660830B1, “Peptides with antiproliferative properties” (priority 1996, dated 2003)
Positions of bridges follow the written chain, without caps; N, C: chain ends. Non-standard residues stand in square brackets, D forms with d. Chains are numbered I, II in the order given. No end group written: not given here.

Tests used:
MCF-7 cells [1] = experiment: Cell cycle distribution by FACS in MCF-7 breast cancer cells; format: cell-based; settings: for morphology of treated cells: peptide 10^-5 M (FIG. 2, 4, 7, 11, 12); for effect on S phase (words, summary of Table 1): MCF-7 stimulated by IGF-1 10^-8 M or insulin 10^-6 M; for effect on S phase (words, summary of Table 1) / G1 (cell population in G1 phase) / G2/M (cell population in G2/M phase) / S (cell population in S phase): peptide 10^-5 M; for G1 (cell population in G1 phase) / G2/M (cell population in G2/M phase) / S (cell population in S phase): FACS
Method: (§1) The experimental setting comprises experiments with the breast cancer cell line MCF-7 containing an intact retinblastoma protein and the human osteosarcoma cell line SAOS-2 containing a defective retinoblastoma protein. Cells are seeded in 12-well plates at 100000 (=one hundred thousand) cells/well/ml in RPMI medium or DMEM medium containing 10% FCS and allowed to adhere for 24 hours. Subsequently, the cells are starved by incubation for 3 days in DMEM without FCS, such that they are synchronized in the G0/G1 phase and then the cells are stimulated by 10% FCS or 10^−8 M IGF-1 or 10^−6 M insulin, respectively, for 24 hours. The effect of each of the added peptides on each of the above modes of stimulation, which effect reflects the rate of cell division, is investigated. The control (cells synchronized in G0/G1) is fixed at time 0 after three days of starvation. The remaining cells (+/−peptide) are fixed after 24 hours. The cells are subsequently analyzed by FACS for their cell cycle distribution. Analogous methods are to be found e.g. in R. Fahraeus et al., Current Biology, 1996, vol. 6, no. 1, pp. 84-91 and L. Zhu et al., Genes & Development, 1993, vol. 7, pp. 1111-1125.

SAOS-2 cells [2] = experiment: Cell cycle distribution by FACS in SAOS-2 osteosarcoma cells; format: cell-based, human; settings: for effect on cell cycle phases (words, summary of Table 2): peptide 5x10^-5 M each; for G1 (cell population in G1 phase) / G2/M (cell population in G2/M phase) / S (cell population in S phase): SAOS-2 synchronized in G0/G1, stimulated by 10% FCS for 24 h, peptide 5x10^-5 M, FACS
Method: as §1

K562 cells = experiment: Cytotoxicity by the trypan blue method in K562 leukemia cells; format: cell-based; settings: asynchronously growing K562 in RPMI; peptide 10^-5 M (FIG. 13)
Method: The results have been plotted as the living cells treated with P3 being a percentage of the living cells not treated with P3. The number of the living cells has been determined by counting at least 200 cells at each time point according to the trypan blue method.
(§2) The second experimental setting relates to the leukemia cell lines K562 and CCRF-CEM and CCRF-CEM/ACT400. 100000 asynchronously growing cells/well/ml RPMI/10% FCS have each been incubated for 48 hours with each of the peptides in 6-well plates. As a readout, the number of dead cells/200 counted cells is determined according to the trypan blue method (L. D. Attardi et al., The EMBO Journal, 1996, vol. 15, no. 14, pp. 3693-3701 and M. K. Reeder & H. C. Isom, Cell Growth & Differentiation 196, vol. 7, pp. 449-460) after this 48-hour incubation.

CCRF-CEM cells = experiment: Cytotoxicity by the trypan blue method in CCRF-CEM sensitive leukemia cells; format: cell-based; settings: asynchronously growing CCRF-CEM sensitive cells, RPMI 10% FCS; peptide 10^-5 M (FIG. 14)
Method: as §2

CCRF-CEM/ACT 400 cells = experiment: Cytotoxicity by the trypan blue method in CCRF-CEM/ACT 400 resistant leukemia cells; format: cell-based; settings: asynchronously growing CCRF-CEM/ACT 400 resistant cells, RPMI 10% FCS; peptide 10^-5 M (FIG. 14)
Method: as §2

[3] = test system: normal human peripheral blood mononuclear cells; experiment: Effect on normal peripheral blood mononuclear cells; format: cell-based; settings: peptide 10^-5 M, 24 hours (FIG. 15)
Method: The incubation of cells with P3 was performed for a time period of 24 hours.

MCF-7 cells [4] = experiment: Cell cycle distribution by FACS in MCF-7 breast cancer cells; format: cell-based
SAOS-2 cells [5] = experiment: Cell cycle distribution by FACS in SAOS-2 osteosarcoma cells; format: cell-based, human; settings: SAOS-2 synchronized in G0/G1, serum-free conditions; peptide 10^-5 M (FIG. 8)
[6] = MCF-7 stimulated by IGF-1 10^-8 M
[7] = MCF-7 stimulated by IGF-1 10^-8 M, peptide 10^-5 M (FIG. 2, 4, 11, 12)
[8] = MCF-7 synchronized in G0/G1, serum-free conditions, peptide 10^-5 M (FIG. 1, 3)
[9] = SAOS-2 stimulated by 10% FCS, peptide 10^-5 M (FIG. 9)
[10] = MCF-7 stimulated by EGF 10^-8 M, peptide 10^-5 M (FIG. 6)
[11] = MCF-7 stimulated by estradiol (E2) 10^-9 M, peptide 10^-5 M (FIG. 6)
[12] = asynchronously growing MCF-7 in DMEM containing 10% FCS, peptide 10^-5 M (FIG. 10)
[13] = MCF-7 synchronized in G0/G1, stimulated by IGF-1 10^-8 M for 24 h
[14] = MCF-7 synchronized in G0/G1, stimulated by insulin 10^-6 M for 24 h

## I: [dL][dF][dY][dK][dK][dV]GGGK[dR]GKG / II: [dL][dF][dY][dK][dK][dV]GGGK[dR]G / III: [dL][dF][dY][dK][dK][dV]GGG / IV: [dL][dF][dY][dK][dK][dV]GGG (amide I:10-IV:C, I:13-II:C, II:10-III:C) [P3, NH2-[dLdFdYdKdKdV-GGG]4-[1KdRG]2-1KG-COOH]
MCF-7 cells [1]; [6]
  morphology of treated cells: corresponds to that of apoptotic cells
MCF-7 cells [1]; [7]
  effect on cell cycle phases: increase of the G1 and G2/M phases as well as in a decrease of the S phase
MCF-7 cells [1]; [8]
  effect on cell cycle phases: reduces the G1 phase and increases the S phase
SAOS-2 cells [2]; [9]
  effect on cell cycle phases: increases the G1 phase and decreases the S phase
  morphology of treated cells: corresponds to that of apoptotic cells
K562 cells
  cytotoxic effect (living treated cells as percentage of living untreated cells, trypan blue): time-dependent
CCRF-CEM cells
  cytotoxic effect: act in a cytotoxic manner
CCRF-CEM/ACT 400 cells
  cytotoxic effect: act in a cytotoxic manner
[3]; activated state (b)
  effect on normal cells: no effect
[3]; quiescent or activated
  morphological changes of treated cells: do not show any morphological changes
[3]; quiescent state (a)
  effect on normal cells: no effect
MCF-7 cells [4]; MCF-7, IGF-1 10^-8 M, peptide 5x10^-6 M (FIG. 7)
  morphology of treated cells: corresponds to that of apoptotic cells
MCF-7 cells [4]; MCF-7, IGF-1 10^-8 M, several peptide concentrations (FIG. 7)
  blocks the progression of the cell cycle caused by IGF-1: in a dose-dependent manner
MCF-7 cells [4]; [10]
  effect on cell cycle phases: increases the G1- and the G2 phases as well as decreases the S phase
  morphology of treated cells: corresponds to that of apoptotic cells
MCF-7 cells [4]; [11]
  effect on cell cycle phases: increases the G1- and the G2 phases as well as decreases the S phase
  morphology of treated cells: corresponds to that of apoptotic cells
MCF-7 cells [4]; [8]
  morphology of treated cells: corresponds to that of apoptotic cells
MCF-7 cells [4]; [12]
  effect on cell cycle phases: reduces the G1 phase and increases the S phase
  morphology of treated cells: corresponds to that of apoptotic cells
SAOS-2 cells [5]
  effect on cell cycle phases: reduces the G1 phase and increases the S and G2/M phases
  morphology of treated cells: corresponds to that of apoptotic cells

## NH2-KVLYFKRQIKIWFQNRRMKWKK-COOH (H-KVLYFKRQIKIWFQNRRMKWKK-OH) [P8]
MCF-7 cells [1]; [6]
  morphology of treated cells: corresponds to that of apoptotic cells
MCF-7 cells [1]; [7]
  effect on cell cycle phases: increases the G1 phase and the G2/M phase as well as decreases the S phase

## NH2-LFYKKVPKKKRKV-COOH (H-LFYKKVPKKKRKV-OH) [P5]
MCF-7 cells [1]
  effect on S phase (words, summary of Table 1): reduce the S phase
MCF-7 cells [1]; [8]
  effect on cell cycle phases: reduces the G1 phase and increases the S phase
MCF-7 cells [1]; [13]
  G1 (cell population in G1 phase): 54.0
  G2/M (cell population in G2/M phase): 13.6
  S (cell population in S phase): 32.4
SAOS-2 cells [2]; SAOS-2 stimulated by 10% FCS
  effect on cell cycle phases (words, summary of Table 2): increase of the G1 phase and a decrease of the S phase
SAOS-2 cells [2]
  G1 (cell population in G1 phase): 73.5
  G2/M (cell population in G2/M phase): 13.3
  S (cell population in S phase): 13.2
MCF-7 cells [4]; [8]
  morphology of treated cells: corresponds to that of apoptotic cells

## NH2-LFYKKVRQIKIWFQNRRMKWKK-COOH (H-LFYKKVRQIKIWFQNRRMKWKK-OH) [P6]
MCF-7 cells [1]
  effect on S phase (words, summary of Table 1): reduce the S phase
MCF-7 cells [1]; [6]
  morphology of treated cells: corresponds to that of apoptotic cells
MCF-7 cells [1]; [7]
  effect on cell cycle phases: increases the G1 phase as well as decreases the S phase
MCF-7 cells [1]; [8]
  effect on cell cycle phases: reduces the G1 phase and increases the S phase
MCF-7 cells [1]; [13]
  G1 (cell population in G1 phase): 53.7
  G2/M (cell population in G2/M phase): 18.6
  S (cell population in S phase): 27.7
MCF-7 cells [1]; [14]
  G1 (cell population in G1 phase): 48.7
  G2/M (cell population in G2/M phase): 14.6
SAOS-2 cells [2]; SAOS-2 stimulated by 10% FCS
  effect on cell cycle phases (words, summary of Table 2): increase of the G1 phase and a decrease of the S phase
SAOS-2 cells [2]
  G1 (cell population in G1 phase): 76.6
  G2/M (cell population in G2/M phase): 11.2
  S (cell population in S phase): 12.2
MCF-7 cells [4]; [8]
  morphology of treated cells: corresponds to that of apoptotic cells
MCF-7 cells [4]; MCF-7 synchronized in G0/G1, stimulated by insulin 10^-6 M for 24 h, peptide 10^-5 M, FACS
  S (cell population in S phase): 36.6

## NH2-[dKdVdLdYdFdKGGG]4-[1KdRG]2-1KG-COOH (H-[dK][dV][dL][dY][dF][dK]GGG[dK][dV][dL][dY][dF][dK]GGG[dK][dV][dL][dY][dF][dK]GGG[dK][dV][dL][dY][dF][dK]GGGK[dR]GK[dR]GKG-OH; also: branched: four arms on polylysine core) [P7s, combination of dKdVdLdYdFdK, hydropathically homologous to P1, and a polylysine core]
MCF-7 cells [1]; [6]
  morphology of treated cells: corresponds to that of apoptotic cells
MCF-7 cells [1]; [7]
  effect on cell cycle phases: increases the G1 phase and the G2/M phase as well as decreases the S phase
